Test results as given in patent US12568972B2, “Pyridazinol compounds and derivatives, preparation methods, herbicidal compositions and applications thereof” (Qingdao Kingagroot Chemical Compound Co., Ltd., priority 2018, dated 2026).

The compounds below were run on Echinochloa crus-galli (assay: Post-emergence test, weed control effect). Conditions: 504 h, Dose 300 g/ha, after 3 weeks, fresh weight inhibition, read-out: activity level of harmful plant destruction (growth inhibition rate), Echinochloa crus-galli.
Format: in vivo
Method in brief: (§1)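 Activity is expressed as a level from 0 (no effect) to 10 (plant dead), each step matching a further 10% fresh-weight inhibition, assessed 3 weeks post-treatment. Treatment: spray at 2-3 leaf stage of pot-grown plants, compound in acetone, Tween-80 and water with 80% vegetable oil methyl ester synergist at 1500 g/ha.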

Compound | inhibition at 300 g/ha
COc1cc(C(F)(F)F)nnc1-c1ccccc1 [D, reference compound] | 0%
Oc1cc(C(F)(F)F)nnc1-c1ccc(C(F)(F)F)cc1F [Compound 51] | 60 to 70%
Cn1nc(-c2cc(O)c(Cl)cc2Cl)c(=O)cc1C(F)(F)F [C, reference compound] | 0%

The compounds below were run on Rorippa indica (assay: Post-emergence test, weed control effect). Conditions: Dose 3000 g/ha, after 3 weeks.
Format: in vivo
Method in brief: as §1

Compound | weed control effect (activity level), Rorippa indica
Oc1cc(C(F)(F)F)nnc1C1=CCCCC1 [Compound 1524] | 10

Same assay, conditions: Rorippa indica, 504 h, Dose 300 g/ha, after 3 weeks, fresh weight inhibition, read-out: activity level of harmful plant destruction (growth inhibition rate), Rorippa indica

Compound | inhibition at 300 g/ha
Oc1cc(C(F)(F)F)nnc1C1=CCCCC1 [Compound 1524] | 100%
COc1cc(C(F)(F)F)nnc1-c1ccccc1 [D, reference compound] | 0 to 20%
Oc1cc(C(F)(F)F)nnc1-c1ccc(C(F)(F)F)cc1F [Compound 51] | 100%
Cn1nc(-c2cc(O)c(Cl)cc2Cl)c(=O)cc1C(F)(F)F [C, reference compound] | 30 to 40%

Same assay, conditions: dose 1000 g/ha, after 3 weeks

Compound | weed control effect (activity level), Rorippa indica
Oc1cc(C(F)(F)F)nnc1-c1ccc(C(F)(F)F)cc1F [Compound 51] | 10

Same assay, conditions: dose 2000 g/ha, after 3 weeks

Compound | weed control effect (activity level), Rorippa indica
Oc1cc(C(F)(F)F)nnc1-c1ccccc1 [Compound 1] | 10

The compounds below were run on Veronica polita (assay: Post-emergence test, weed control effect). Conditions: Dose 3000 g/ha, after 3 weeks.
Format: in vivo
Method in brief: as §1

Compound | weed control effect (activity level), Veronica polita
Oc1cc(C(F)(F)F)nnc1C1=CCCCC1 [Compound 1524] | 10

Same assay, conditions: Veronica polita, 504 h, Dose 300 g/ha, after 3 weeks, fresh weight inhibition, read-out: activity level of harmful plant destruction (growth inhibition rate), Veronica polita

Compound | inhibition at 300 g/ha
Oc1cc(C(F)(F)F)nnc1C1=CCCCC1 [Compound 1524] | 90 to 100%
COc1cc(C(F)(F)F)nnc1-c1ccccc1 [D, reference compound] | 0%
Oc1cc(C(F)(F)F)nnc1-c1ccc(C(F)(F)F)cc1F [Compound 51] | 90 to 100%
Cn1nc(-c2cc(O)c(Cl)cc2Cl)c(=O)cc1C(F)(F)F [C, reference compound] | 20 to 30%

Same assay, conditions: dose 1000 g/ha, after 3 weeks

Compound | weed control effect (activity level), Veronica polita
Oc1cc(C(F)(F)F)nnc1-c1ccc(C(F)(F)F)cc1F [Compound 51] | 10

Same assay, conditions: dose 2000 g/ha, after 3 weeks

Compound | weed control effect (activity level), Veronica polita
Oc1cc(C(F)(F)F)nnc1-c1ccccc1 [Compound 1] | 10

Each compound was assayed on Setaria viridis (assay: Post-emergence test, weed control effect). Conditions: 504 h, Dose 300 g/ha, after 3 weeks, fresh weight inhibition, read-out: activity level of harmful plant destruction (growth inhibition rate), Setaria viridis.
Format: in vivo
Method in brief: as §1

Compound | inhibition at 300 g/ha
Oc1cc(C(F)(F)F)nnc1C1=CCCCC1 [Compound 1524] | 100%
COc1cc(C(F)(F)F)nnc1-c1ccccc1 [D, reference compound] | 0%
Oc1cc(C(F)(F)F)nnc1-c1ccc(C(F)(F)F)cc1F [Compound 51] | 90 to 100%
Cn1nc(-c2cc(O)c(Cl)cc2Cl)c(=O)cc1C(F)(F)F [C, reference compound] | 0%

The compounds below were run on Amaranthus retroflexus (assay: Post-emergence test, weed control effect). Conditions: Dose 3000 g/ha, after 3 weeks.
Format: in vivo
Method in brief: as §1

Compound | weed control effect (activity level), Amaranthus retroflexus
Oc1cc(C(F)(F)F)nnc1C1=CCCCC1 [Compound 1524] | 10

Same assay, conditions: dose 1000 g/ha, after 3 weeks

Compound | weed control effect (activity level), Amaranthus retroflexus
Oc1cc(C(F)(F)F)nnc1-c1ccc(C(F)(F)F)cc1F [Compound 51] | 10

Same assay, conditions: dose 2000 g/ha, after 3 weeks

Compound | weed control effect (activity level), Amaranthus retroflexus
Oc1cc(C(F)(F)F)nnc1-c1ccccc1 [Compound 1] | 10

What follows are compounds tested on Galium aparine (assay: Post-emergence test, weed control effect). Conditions: 504 h, Dose 300 g/ha, after 3 weeks, fresh weight inhibition, read-out: activity level of harmful plant destruction (growth inhibition rate), Galium aparine.
Format: in vivo
Method in brief: as §1

Compound | inhibition at 300 g/ha
Oc1cc(C(F)(F)F)nnc1C1=CCCCC1 [Compound 1524] | 90 to 100%
COc1cc(C(F)(F)F)nnc1-c1ccccc1 [D, reference compound] | 0%
Oc1cc(C(F)(F)F)nnc1-c1ccc(C(F)(F)F)cc1F [Compound 51] | 80 to 90%
Cn1nc(-c2cc(O)c(Cl)cc2Cl)c(=O)cc1C(F)(F)F [C, reference compound] | 20 to 30%

What follows are compounds tested on Chenopodiaceae (assay: Post-emergence test, weed control effect). Conditions: 504 h, Dose 300 g/ha, after 3 weeks, fresh weight inhibition, read-out: activity level of harmful plant destruction (growth inhibition rate), Chenopodiaceae.
Format: in vivo
Method in brief: as §1

Compound | inhibition at 300 g/ha
Oc1cc(C(F)(F)F)nnc1C1=CCCCC1 [Compound 1524] | 100%
COc1cc(C(F)(F)F)nnc1-c1ccccc1 [D, reference compound] | 0 to 20%
Oc1cc(C(F)(F)F)nnc1-c1ccc(C(F)(F)F)cc1F [Compound 51] | 100%
Cn1nc(-c2cc(O)c(Cl)cc2Cl)c(=O)cc1C(F)(F)F [C, reference compound] | 30 to 40%

Same assay, conditions: Dose 3000 g/ha, after 3 weeks

Compound | weed control effect (activity level), Chenopodiaceae
Oc1cc(C(F)(F)F)nnc1C1=CCCCC1 [Compound 1524] | 10

Same assay, conditions: dose 1000 g/ha, after 3 weeks

Compound | weed control effect (activity level), Chenopodiaceae
Oc1cc(C(F)(F)F)nnc1-c1ccc(C(F)(F)F)cc1F [Compound 51] | 10

Same assay, conditions: dose 2000 g/ha, after 3 weeks

Compound | weed control effect (activity level), Chenopodiaceae
Oc1cc(C(F)(F)F)nnc1-c1ccccc1 [Compound 1] | 8 (Level 8: above 80% growth inhibition rate)

What follows are compounds tested on weeds (assay: Control effect and synergistic effect of the mixture of (i) and (ii), postemergence (Gowing method)). Conditions: Abutilon theophrasti; 30 g a.i./ha; postemergence, 20 days after treatment.
Format: in vivo
From the text: Wherein, in the formula, X represented the fresh weight inhibition rate of the active ingredient A in a dosage of P, and Y represented the fresh weight inhibition rate of the active ingredient B in a dosage of Q. The statistic results are shown in Table 6.

Compound | Inhibitory effect of component (i) when applied alone at same dose
Oc1cc(C(F)(F)F)nnc1-c1ccccc1 [Compound 1] | 20

Same assay, conditions: Galinsoga parviflora; 30 g a.i./ha; postemergence, 20 days after treatment

Compound | Inhibitory effect of component (i) when applied alone at same dose
Oc1cc(C(F)(F)F)nnc1-c1ccccc1 [Compound 1] | 30

Same assay, conditions: Galium aparine; 30 g a.i./ha; postemergence, 20 days after treatment

Compound | Inhibitory effect of component (i) when applied alone at same dose
Oc1cc(C(F)(F)F)nnc1-c1ccccc1 [Compound 1] | 20

Same assay, conditions: Sisymbrium sophia; 30 g a.i./ha; postemergence, 20 days after treatment

Compound | Inhibitory effect of component (i) when applied alone at same dose
Oc1cc(C(F)(F)F)nnc1-c1ccccc1 [Compound 1] | 20

Same assay, conditions: Veronica polita; 30 g a.i./ha; postemergence, 20 days after treatment

Compound | Inhibitory effect of component (i) when applied alone at same dose
Oc1cc(C(F)(F)F)nnc1-c1ccccc1 [Compound 1] | 30
